Measurements reported in US9809598B2 (Merck Patent GmbH, priority 2014, dated 2017).

Experiments:
[1] = biological target: T1, PARP-1 (Homo sapiens, UniProt P09874); experiment: PARP-1 autoparsylation assay (HTRF); type: biochemical; conditions: His-tagged Parp-1, autoparsylation HTRF
T1 construct: purchased Enzo Life Sciences GmbH, Lörrach, Germany
Excerpt: Description of the PARP1 Assay
Biochemical Activity Testing of PARP-1: Autoparsylation Assay
The autoparsylation assay is run in two steps: the enzymatic reaction in which His-tagged Parp-1 transfers biotinylated ADP-ribose/ADP-ribose to itself from biotinylated NAD/NAD as co-substrate and the detection reaction where a time resolved FRET between cryptate labelled anti-His antibody bound to the His tag of the enzyme and Xlent® labelled-streptavidin bound the biotin-parsylation residue is analysed. The autoparsylation activity is detectable directly via the increase in HTRF signal.
The autoparsylation assay is performed as 384-well HTRF® (Cisbio, Codolet, France) assay format in Greiner low volume nb 384-well microtiter plates. […] The ratio of the emission signals is determined. The full value used is the inhibitor-free reaction. The pharmacological zero value used is Olaparib (LClabs, Woburn, US) in a final concentration of 1 μM. The inhibitory values (IC50) are determined using either the program Symyx Assay Explorer® or Condosseo® from GeneData.

[2] = biological target: T2, TNKS1 (Homo sapiens, UniProt O95271); experiment: TNKS1 activity ELISA (autoparsylation assay); type: biochemical; conditions: GST-tagged Tnks-1 (1023-1327 aa)
T2 construct: GST-tagged Tnks-1 (1023-1327 aa, prepared in-house); made in house
T2 sequence (O95271 1023-1327): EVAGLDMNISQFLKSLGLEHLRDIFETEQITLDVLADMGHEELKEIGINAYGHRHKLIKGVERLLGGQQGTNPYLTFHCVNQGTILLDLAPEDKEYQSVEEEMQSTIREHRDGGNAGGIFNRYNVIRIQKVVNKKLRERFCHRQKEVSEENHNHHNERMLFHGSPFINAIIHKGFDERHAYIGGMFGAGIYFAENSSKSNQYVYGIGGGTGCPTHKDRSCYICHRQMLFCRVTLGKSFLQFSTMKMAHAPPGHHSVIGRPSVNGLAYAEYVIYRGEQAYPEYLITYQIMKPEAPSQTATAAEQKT
Protocol: (§1) Description of the TNKS1 and TNKS2 ELISA Assay
(§2) Biochemical Activity Testing of TNKS 1 and 2: Activity ELISA (Autoparsylation Assay)
(§3) For analysis of autoparsylation activity of TNKS 1 and 2 an activity ELISA iss performed: In the first step GST tagged TNKS is captured on a Glutathione coated plate. Then the activity assay with biotinylated NAD is performed in the absence/presence of the compounds. During the enzymatic reaction GST tagged TNKS transfers biotinylated ADP-ribose to itself from biotinylated NAD as co-substrate. For the detection streptavidin-HRP conjugate is added that binds to the biotinylated TNKS and is thereby captured to the plates. The amount of biotinylated resp. autoparsylated TNKS is detected with a luminescence substrate for HRP. The level of the luminescence signal correlats directly with the amount of autoparsylated TNKS and therefore with activity of TNKS.
(§4) The activity ELISA is performed in 384 well Glutathione coated microtiter plates (Express capture Glutathione coated plate, Biocat, Heidelberg, Germany). The plates are pre-equilibrated with PBS. […] The plates are washed 3 times with PBS-Tween-20. The wells are blocked by incubation at room temperature for 20 minutes with 50 μl blocking buffer (PBS, 0.05% Tween-20, 0.5% BSA). Afterwards the plates are washed 3 times with PBS-Tween-20. […] The reaction is stopped by 3 times washing with PBS-Tween-20. For the detection 50 μl of 20 ng/μl Streptavidin, HRP conjugate (MoBiTec, Göttingen, Germany) in PBS/0.05% Tween-20/0.01% BSA are added and the plates are incubated for 30 minutes at room temperature. After three times washing with PBS-Tween-20 50 μl of SuperSignal ELISA Femto Maximum sensitivity substrate solution (ThermoFisherScientific (Pierce), Bonn, Germany) are added. Following a 1 minute incubation at room temperature luminescence signals are measured with an Envision multimode reader (Perkin Elmer LAS Germany GmbH) at 700 nm. The full value used is the inhibitor-free reaction. […] The inhibitory values (IC50) are determined using either the program Symyx Assay Explorer® or Condosseo® from GeneData.

[3] = biological target: T3, TNKS2 (Homo sapiens, UniProt Q9H2K2); experiment: TNKS2 activity ELISA (autoparsylation assay); type: biochemical; conditions: GST-tagged Tnks-2 (873-1166 aa); read-out: IC50 [M] TNKS2 ELISA
T3 construct: GST-tagged Tnks-2 (873-1166 aa, prepared in-house); made in house
T3 sequence (Q9H2K2 873-1166): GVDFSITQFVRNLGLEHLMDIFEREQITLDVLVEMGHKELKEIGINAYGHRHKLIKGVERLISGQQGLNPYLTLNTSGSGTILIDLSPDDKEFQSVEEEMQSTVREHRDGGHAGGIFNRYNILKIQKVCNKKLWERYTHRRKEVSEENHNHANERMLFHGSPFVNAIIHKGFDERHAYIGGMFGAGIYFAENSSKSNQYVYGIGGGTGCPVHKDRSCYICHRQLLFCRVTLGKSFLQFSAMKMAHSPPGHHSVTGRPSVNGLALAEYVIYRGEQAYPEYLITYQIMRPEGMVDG
Protocol: as §1, §2, §3, §4

[4] = test system: Tankyrases; conditions: read-out: EC50 [M] TNKS cellular assay; DLD1 cells, 24 hours, Axin2 increase

T1 sequence (P09874 whole entry): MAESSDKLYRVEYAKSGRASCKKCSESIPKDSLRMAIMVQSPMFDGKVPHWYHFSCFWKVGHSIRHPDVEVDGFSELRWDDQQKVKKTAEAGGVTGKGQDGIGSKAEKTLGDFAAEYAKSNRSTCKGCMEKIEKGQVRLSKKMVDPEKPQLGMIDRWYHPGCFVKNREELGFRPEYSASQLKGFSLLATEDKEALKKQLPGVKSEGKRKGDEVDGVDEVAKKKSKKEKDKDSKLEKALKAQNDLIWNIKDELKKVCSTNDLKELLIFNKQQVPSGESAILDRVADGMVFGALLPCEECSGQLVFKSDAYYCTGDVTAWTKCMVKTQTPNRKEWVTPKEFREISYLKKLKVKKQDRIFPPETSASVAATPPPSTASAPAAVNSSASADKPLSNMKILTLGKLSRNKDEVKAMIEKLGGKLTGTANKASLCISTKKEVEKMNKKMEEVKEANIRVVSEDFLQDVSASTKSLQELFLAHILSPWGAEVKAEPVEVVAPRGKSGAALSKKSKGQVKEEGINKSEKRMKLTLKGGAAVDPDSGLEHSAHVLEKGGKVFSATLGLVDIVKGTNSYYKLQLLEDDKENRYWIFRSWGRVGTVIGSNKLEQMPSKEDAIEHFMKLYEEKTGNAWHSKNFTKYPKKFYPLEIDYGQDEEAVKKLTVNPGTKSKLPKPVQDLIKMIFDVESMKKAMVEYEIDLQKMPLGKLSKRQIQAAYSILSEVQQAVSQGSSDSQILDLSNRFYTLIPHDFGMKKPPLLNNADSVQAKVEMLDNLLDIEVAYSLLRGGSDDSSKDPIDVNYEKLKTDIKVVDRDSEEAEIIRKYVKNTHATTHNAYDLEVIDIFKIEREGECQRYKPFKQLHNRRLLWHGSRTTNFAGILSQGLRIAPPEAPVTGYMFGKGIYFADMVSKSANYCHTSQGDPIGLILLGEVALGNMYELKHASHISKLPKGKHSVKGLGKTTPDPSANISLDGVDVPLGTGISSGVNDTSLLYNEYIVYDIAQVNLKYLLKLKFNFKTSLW

## Cc1cc2c(=O)[nH]c(CCCC(=O)N3CCC(C(=O)c4cnn(C(C)C)c4)CC3)cn2n1 [Compound C217, 6-{4-[4-(1-Isopropyl-1H-pyrazole-4-carbonyl)-piperidin-1-yl]-4-oxo-butyl}-2-methyl-5H-pyrazolo[1,5-a]pyrazin-4-one]
[1]
  IC50: 6600 nM
[2]
  IC50: 2 nM
[3]
  IC50: 2.7e-09 M
[4]
  EC50: 3e-08 M

## Cn1ccc2c(=O)[nH]c(CCCC(=O)N3CCC(C(=O)c4ccc(F)c(F)c4)CC3)nc21 [Compound C248, 2-{4-[4-(3,4-Difluoro-benzoyl)-piperidin-1-yl]-4-oxo-butyl}-7-methyl-3,7-dihydro-pyrrolo[2,3-d]pyrimidin-4-one]
[1]
  IC50: 2400 nM
[2]
  IC50: 0.7 nM
[3]
  IC50: 2.3e-10 M
[4]
  EC50: 8.7e-09 M

## CCn1cc(C(=O)C2CCN(C(=O)CCCc3nc4c(cnn4C)c(=O)[nH]3)CC2)cn1 [Compound C213, 6-{4-[4-(1-Ethyl-1H-pyrazole-4-carbonyl)-piperidin-1-yl]-4-oxo-butyl}-1-methyl-1,5-dihydro-pyrazolo[3,4-d]pyrimidin-4-one]
[1]
  IC50: 11000 nM
[2]
  IC50: 1.2 nM
[3]
  IC50: 5.2e-10 M
[4]
  EC50: 8.6e-08 M

## CCn1cc(C(=O)C2CCN(C(=O)CCCc3nc4c(ccn4C)c(=O)[nH]3)CC2)cn1 [Compound C243, 2-{4-[4-(1-Ethyl-1H-pyrazole-4-carbonyl)-piperidin-1-yl]-4-oxo-butyl}-7-methyl-3,7-dihydro-pyrrolo[2,3-d]pyrimidin-4-one]
[1]
  IC50: 4200 nM
[2]
  IC50: 0.47 nM
[3]
  IC50: 2.2e-10 M
[4]
  EC50: 3.4e-08 M

## COc1ccc(C(=O)C2CCN(C(=O)CCCc3nc4c(C)scc4c(=O)[nH]3)CC2)cc1 [Compound C34, 2-{4-[4-(4-Methoxy-benzoyl)-piperidin-1-yl]-4-oxo-butyl}-7-methyl-3H-thieno[3,4-d]pyrimidin-4-one]
[1]
  IC50: 1100 nM
[2]
  IC50: 0.54 nM
[3]
  IC50: 3.3e-10 M
[4]
  EC50: 4.8e-09 M

## Cc1nc(CCCC(=O)N2CCC(C(=O)c3ccc(F)cc3)CC2)[nH]c(=O)c1C [Compound C240, 2-{4-[4-(4-Fluoro-benzoyl)-piperidin-1-yl]-4-oxo-butyl}-5,6-dimethyl-3H-pyrimidin-4-one]
[1]
  IC50: 19000 nM
[2]
  IC50: 14 nM
[3]
  IC50: 5.3e-09 M
[4]
  EC50: 5.8e-07 M

## Cc1scc2c(=O)[nH]c(CCCC(=O)N3CCC(C(=O)c4cnn(C)c4)CC3)nc12 [Compound C123, 7-Methyl-2-{4-[4-(1-methyl-1H-pyrazole-4-carbonyl)-piperidin-1-yl]-4-oxo-butyl}-3H-thieno[3,4-d]pyrimidin-4-one]
[1]
  IC50: 1200 nM
[2]
  IC50: 0.67 nM
[3]
  IC50: 5.7e-10 M
[4]
  EC50: 3.4e-09 M

## Cc1scc2c(=O)[nH]c(CCCC(=O)N3CCC(Oc4ccc(C#N)cc4)CC3)nc12 [Compound C118, 4-{1-[4-(7-Methyl-4-oxo-3,4-dihydro-thieno[3,4-d]pyrimidin-2-yl)-butyryl]-piperidin-4-yloxy}-benzonitrile]
[1]
  IC50: 850 nM
[2]
  IC50: 110 nM
[3]
  IC50: 8.9e-08 M
[4]
  EC50: 9.1e-07 M

## N#Cc1ccc(OC2CCN(C(=O)CCCc3cn4cccc4c(=O)[nH]3)CC2)cc1 [Compound C5, 4-{1-[4-(1-Oxo-1,2-dihydro-pyrrolo[1,2-a]pyrazin-3-yl)-butyryl]-piperidin-4-yloxy}-benzonitrile]
[1]
  IC50: 4300 nM
[2]
  IC50: 0.13 nM
[3]
  IC50: 8.8e-09 M
[4]
  EC50: 1.2e-07 M

## Nc1ncc(C2CCN(C(=O)CCCc3nn4cccc4c(=O)[nH]3)CC2)cc1-c1ncccn1 [Compound C139, 2-[4-(6-Amino-5-pyrimidin-2-yl-3′,4′,5′,6′-tetrahydro-2′H-[3,4′]bipyridinyl-1′-yl)-4-oxo-butyl]-3H-pyrrolo[2,1-f][1,2,4]triazin-4-one]
[1]
  IC50: 3200 nM
[2]
  IC50: 0.23 nM
[3]
  IC50: 2.6e-10 M
[4]
  EC50: 3.4e-09 M

## Cc1ccc2c(=O)[nH]c(CCCC(=O)N3CCC(c4cnc(N)c(C#N)c4)CC3)nn12 [Compound C149, 6-Amino-1′-[4-(7-methyl-4-oxo-3,4-dihydro-pyrrolo[2,1-f][1,2,4]triazin-2-yl)-butyryl]-1′,2′,3′,4′,5′,6′-hexahydro-[3,4′]bipyridinyl-5-carbonitrile]
[1]
  IC50: 770 nM
[2]
  IC50: 0.38 nM
[3]
  IC50: 3.8e-10 M
[4]
  EC50: 3.1e-09 M

## COc1ccc(C(=O)C2CCN(C(=O)CCCc3cn4c(C)ncc4c(=O)[nH]3)CC2)cc1 [Compound C33, 6-{4-[4-(4-Methoxy-benzoyl)-piperidin-1-yl]-4-oxo-butyl}-3-methyl-7H-imidazo[1,5-a]pyrazin-8-one]
[1]
  IC50: 5500 nM
[2]
  IC50: 0.16 nM
[3]
  IC50: 1.2e-10 M
[4]
  EC50: 1.5e-09 M

## Cn1ccc2c(=O)[nH]c(CCCC(=O)N3CCC(C(=O)c4ccc(C(C)(F)F)cc4)CC3)nc21 [Compound C249, 2-(4-{4-[4-(1,1-Difluoro-ethyl)-benzoyl]-piperidin-1-yl}-4-oxo-butyl)-7-methyl-3,7-dihydro-pyrrolo[2,3-d]pyrimidin-4-one]
[1]
  IC50: 1100 nM
[2]
  IC50: 0.42 nM
[3]
  IC50: 1.2e-10 M
[4]
  EC50: 1.8e-09 M

## CC(C)(O)c1ccc(C(=O)C2CCN(C(=O)CCCc3nn4cccc4c(=O)[nH]3)CC2)cc1 [Compound C144, 2-(4-{4-[4-(1-Hydroxy-1-methyl-ethyl)-benzoyl]-piperidin-1-yl}-4-oxo-butyl)-3H-pyrrolo[2,1-f][1,2,4]triazin-4-one]
[1]
  IC50: 11000 nM
[2]
  IC50: 7.3 nM
[3]
  IC50: 3.5e-09 M
[4]
  EC50: 8.3e-08 M

## COc1ccc(C(=O)C2CCN(C(=O)CCCc3nc(C)c(C)c(=O)[nH]3)CC2)cc1 [Compound C239, 2-{4-[4-(4-Methoxy-benzoyl)-piperidin-1-yl]-4-oxo-butyl}-5,6-dimethyl-3H-pyrimidin-4-one]
[1]
  IC50: 24000 nM
[2]
  IC50: 2.6 nM
[3]
  IC50: 8.2e-10 M
[4]
  EC50: 1.5e-08 M

## Cc1csc2c(=O)[nH]c(CCCC(=O)N3CCC(Oc4ccc(C#N)cc4)CC3)nc12 [Compound C130, 4-{{1-[4-(7-Methyl-4-oxo-3H-thieno[3,2-d]pyrimidin-2-yl)butanoyl]-4-piperidyl}-oxy}benzonitrile]
[1]
  IC50: 320 nM
[2]
  IC50: 50 nM
[3]
  IC50: 2.1e-08 M
[4]
  EC50: 3.3e-08 M

## Cn1ccc2c(=O)[nH]c(CCCC(=O)N3CCC(c4cnc(N)c(C#N)c4)CC3)nc21 [Compound C182, 6-Amino-1′-[4-(7-methyl-4-oxo-4,7-dihydro-3H-pyrrolo[2,3-d]pyrimidin-2-yl)-butyryl]-1′,2′,3′,4′,5′,6′-hexahydro-[3,4′]bipyridinyl-5-carbonitrile]
[1]
  IC50: 1500 nM
[2]
  IC50: 1.3 nM
[3]
  IC50: 6.5e-10 M
[4]
  EC50: 2.4e-07 M

## CC(C)n1cc(C(=O)C2CCN(C(=O)CCCc3nn4cc(F)cc4c(=O)[nH]3)CC2)cn1 [Compound C221, 6-Fluoro-2-{4-[4-(1-isopropyl-1H-pyrazole-4-carbonyl)-piperidin-1-yl]-4-oxo-butyl}-3H-pyrrolo[2,1-f][1,2,4]triazin-4-one]
[1]
  IC50: 1900 nM
[2]
  IC50: 2.1 nM
[3]
  IC50: 2e-09 M
[4]
  EC50: 2.7e-08 M

## Cc1ccc(C(=O)C2CCN(C(=O)CCCc3nc4c(cnn4C)c(=O)[nH]3)CC2)cc1 [Compound C234, 1-Methyl-6-{4-[4-(4-methyl-benzoyl)-piperidin-1-yl]-4-oxo-butyl}-1,5-dihydro-pyrazolo[3,4-d]pyrimidin-4-one]
[1]
  IC50: 18000 nM
[2]
  IC50: 0.66 nM
[3]
  IC50: 3e-10 M
[4]
  EC50: 1.6e-08 M

## Cc1csc2c(=O)[nH]c(CCCC(=O)N3CCC(c4nnc(-c5ccccc5)o4)CC3)nc12 [Compound C54, 7-Methyl-2-{4-oxo-4-[4-(5-phenyl-[1,3,4]oxadiazol-2-yl)-piperidin-1-yl]-butyl}-3H-thieno[3,2-d]pyrimidin-4-one]
[1]
  IC50: 1500 nM
[2]
  IC50: 4.7 nM
[3]
  IC50: 1.8e-09 M
[4]
  EC50: 1.4e-08 M
